Test results from patent publication US4652568A, “Theophylline-7-acetic acid ester of d,l-trans-sobrerol having mucosecretolytic-fluidizing and antibronchospastic activity, a process for its preparation and pharmaceutical compositions thereof” (priority 1984, dated 1987).

Tests used:
[1] = Acute toxicity: LD50 in the mouse after a single oral administration; details: in vivo, mortality at 14th day, Litchfield and Wilcoxon
Protocol: Method for studying LD50 in the mouse after a single oral administration.
Groups of 10 Swiss albine, female, adult mice (20-22 g), fasting from the evening preceding the test, are treated orally with various doses (4 to 5) of the test drugs, dissolved/suspended in 1% hydroxycellulose (volume administered 20 ml/kg). Thereafter, the animals are fed again (Morini MIL fodder for mice).
The 50% lethal dose (LD50) is calculated by the method of Litchfield J. T. and Wilcoxon F. (J. Pharmacol. 96, 99-113, 1949) by utilizing the mortality data as obtained at the 14th day after the drug treatment.

[2] = system: bronchospasm induced by hystamine; assay: Antibronchospastic activity in the guinea-pig, method of Konzett and Rossler; format: in vivo; details: drug i.v., inhibition of bronchospasm by hystamine (6 to 20 mg/kg i.v.), relative to theophylline, taken equal to 100
Protocol: Spotted female guinea-pigs, with a body weight of 300-500 g., are used.
As a spasmogenous agent, hystamine (6 to 20 mg/kg i.v.) is used. The activity is defined as percent inhibition of the bronchospasm induced by hystamine in the presence of the drug (i.v. administered), compared to the one of hystamine alone in the presence of the solvent.
The drugs are dissolved into 2% dimethylformamide in physiological solution (solvent).

[3] = system: mucoproduction (bronchial secretion); assay: Bronchosecretagogue activity: mucoproduction in the rabbit according to Scuri; format: in vivo; details: for Bronchosecretagogue activity: rabbit, oral, percent increase of mucoproduction II vs I period, relative to d,l-trans-sobrerol, taken equal to 100
Protocol: Method of mucoproduction in the rabbit according to Scuri R. et al, Boll. Chim. Farm.
Male brown rabbits weighing 2.8-3.5 kg are used. To said animals, by a surgical operation under anaesthesia, a T shaped tracheal cannula is applied, as described in the above mentioned bibliographic reference.
To the cannula, a container (a polypropylene 2 ml test tube) is applied for periodical collection of the bronchial secretion.
The study of mucoproduction, started at the fourth day after the operation, is divided into two 4 hour periods for collecting and measuring the mucus, and precisely from 8:30 to 12:30 (I) and from 12:30 to 16:30 (II).
The activity of each drug is tested by administering the same by oesophageal way (os) at the begining of the II period and by evaluating the percent increase of mucoproduction (weight of the mucus as collected) over the II period as compared to the I period.

[4] = system: bronchial mucus of bronchitic rabbits; assay: Fluidizing "in vivo" activity: viscosity of the bronchial mucus of bronchitic rabbits; set-up: species or system rabbit; details: for Fluidizing "in vivo" activity of bronchial mucus: bronchitic rabbits, oral, relative to d,l-trans-sobrerol taken equal to 100
Protocol: Method for studying viscosity of the bronchial mucus of a bronchitic rabbit.
Viscosity of the mucus as withdrawn is studied by using a Contraves RM16 microviscosimeter and it is recorded by a Rheomat 15T-FC apparatus.

[5] = Pharmacocinetics: plasma levels (HPLC) and presence in tracheo-bronchial excretion and pulmonary tissue; format: in vivo, Wistar rats; details: rat, 300 mg/kg oral
Protocol: Two groups of Wistar rats (165.div.250 g) are utilized. Before treatment, the animals were fasting for about 15 hours and were allowed to drink a 10% glucose solution ad libitum.
To the first group, the compound of formula (I) of this invention, orally (transoesophageal intubation) at the dose of 300 mg/kg is administered (a single administration) and at 0.5 h; 1 h; 1.5 h; 2 h; 3 h; 4 h; and 6 h from administration 5 rats/time are sacrificed. The blood, as collected into test tubes containing sodium heparin is centrifuged, and the plasma so obtained is utilized for quantitative analysis of the product, by means of high pressure liquid chromatography (HPLC) with an U.V. detector. To the second group, the compound of formula (I) of this invention at the dose of 300 mg/kg orally is administered (a single administration), and at 1 h and 2 h from administration, 5 rats/time are sacrificed (by bleeding). To each rat, trachea, bronchia and lungs are withdrawn. From trachea and bronchia, by means of two washings with a 0.5 ml syringe containing physiological solution, introduced into the trachea, the tracheo-bronchialexcretion is recovered, which is utilized to evaluate quantitatively the presence of the compound of formula (I) of the present invention. The pulmonary tissue, to which a KCl solution has been added, is homogenized by an ultra Turrax apparatus and utilized for the quantitative testing of the presence of the compound of formula (I) of this invention. […] In relation to the activity shown on by the compound of the invention as a mucosecretolytic-fluidizing-anti-bronchospastic agent, the present invention further provides pharmaceutical compositions containing the compound of formula (I) of this invention in dosage units.

| Compound | LD50 at 336 h [1] [mg/kg] | Antibronchospastic activity [2] | Bronchosecretagogue activity [3] | mucosecretolytic activity compared with d,l-trans-sobrerol, in words ([3]; summary statement) | Fluidizing "in vivo" activity of bronchial mucus [4] | fluidizing activity compared with d,l-trans-sobrerol, in words ([4]; summary statement) | presence at the level of tracheo-bronchial mucus ([5]; 1 h and 2 h) | presence in the pulmonary parenchyma ([5]; 1 h and 2 h) | absorption (course of the plasmatic levels) ([5]; single administration, plasma 0.5 to 6 h) |
| --- | --- | --- | --- | --- | --- | --- | --- | --- | --- |
| CC1=CC[C@H](C(C)(C)O)C[C@H]1OC(=O)Cn1cnc2c1c(=O)n(C)c(=O)n2C (relative stereo) [CO/1488, 5-hydroxy-α,α-4-trimethyl-3-cyclohexene-1-methanol-5-[2[7[1,2,3,6-tetrahydro-1,3-dimethyl-2,6-dioxopurinyl]]]acetate] | 1900 | 143 | 128 | slight potency increase | 110 | slight potency increase | found also at the level of tracheo-bronchial mucus | in the pulmonary parenchyma | quick and good absorption |
| CC1=CC[C@H](C(C)(C)O)C[C@H]1O (relative stereo) [d,l-trans-sobrerol] |  | 0 | 100 |  | 100 |  |  |  |  |
| Cn1c(=O)c2[nH]cnc2n(C)c1=O [theophylline] |  | 100 | 0 |  | 0 |  |  |  |  |
